The values below come from patent US9636418B2 (priority 2013, dated 2017).

pIC50: −log10 of the molar value. Read-outs that look alike come from different tables or passages of the source.

Common to all, as to test: cell-based
One test concerns the target hNav1.7 (Homo sapiens, UniProt Q15858). In kind it is cell-based. The settings on record: PatchXpress, read-out: PX hNav1.7 Tonic IC50.
A further test addresses hNav1.4 (Homo sapiens, UniProt P35499). As to conditions: for pIC50: PatchXpress, read-out: PX hNav1.4 Tonic IC50.
The target in the next test is hNav1.5 (Homo sapiens, UniProt Q14524). As to conditions: for pIC50: PatchXpress, read-out: PX hNav1.5 Tonic IC50.
[1] abbreviates: * = at high concentrations compound would wash off slowly or not at all.

Chain of hNav1.7 (Q15858 whole entry): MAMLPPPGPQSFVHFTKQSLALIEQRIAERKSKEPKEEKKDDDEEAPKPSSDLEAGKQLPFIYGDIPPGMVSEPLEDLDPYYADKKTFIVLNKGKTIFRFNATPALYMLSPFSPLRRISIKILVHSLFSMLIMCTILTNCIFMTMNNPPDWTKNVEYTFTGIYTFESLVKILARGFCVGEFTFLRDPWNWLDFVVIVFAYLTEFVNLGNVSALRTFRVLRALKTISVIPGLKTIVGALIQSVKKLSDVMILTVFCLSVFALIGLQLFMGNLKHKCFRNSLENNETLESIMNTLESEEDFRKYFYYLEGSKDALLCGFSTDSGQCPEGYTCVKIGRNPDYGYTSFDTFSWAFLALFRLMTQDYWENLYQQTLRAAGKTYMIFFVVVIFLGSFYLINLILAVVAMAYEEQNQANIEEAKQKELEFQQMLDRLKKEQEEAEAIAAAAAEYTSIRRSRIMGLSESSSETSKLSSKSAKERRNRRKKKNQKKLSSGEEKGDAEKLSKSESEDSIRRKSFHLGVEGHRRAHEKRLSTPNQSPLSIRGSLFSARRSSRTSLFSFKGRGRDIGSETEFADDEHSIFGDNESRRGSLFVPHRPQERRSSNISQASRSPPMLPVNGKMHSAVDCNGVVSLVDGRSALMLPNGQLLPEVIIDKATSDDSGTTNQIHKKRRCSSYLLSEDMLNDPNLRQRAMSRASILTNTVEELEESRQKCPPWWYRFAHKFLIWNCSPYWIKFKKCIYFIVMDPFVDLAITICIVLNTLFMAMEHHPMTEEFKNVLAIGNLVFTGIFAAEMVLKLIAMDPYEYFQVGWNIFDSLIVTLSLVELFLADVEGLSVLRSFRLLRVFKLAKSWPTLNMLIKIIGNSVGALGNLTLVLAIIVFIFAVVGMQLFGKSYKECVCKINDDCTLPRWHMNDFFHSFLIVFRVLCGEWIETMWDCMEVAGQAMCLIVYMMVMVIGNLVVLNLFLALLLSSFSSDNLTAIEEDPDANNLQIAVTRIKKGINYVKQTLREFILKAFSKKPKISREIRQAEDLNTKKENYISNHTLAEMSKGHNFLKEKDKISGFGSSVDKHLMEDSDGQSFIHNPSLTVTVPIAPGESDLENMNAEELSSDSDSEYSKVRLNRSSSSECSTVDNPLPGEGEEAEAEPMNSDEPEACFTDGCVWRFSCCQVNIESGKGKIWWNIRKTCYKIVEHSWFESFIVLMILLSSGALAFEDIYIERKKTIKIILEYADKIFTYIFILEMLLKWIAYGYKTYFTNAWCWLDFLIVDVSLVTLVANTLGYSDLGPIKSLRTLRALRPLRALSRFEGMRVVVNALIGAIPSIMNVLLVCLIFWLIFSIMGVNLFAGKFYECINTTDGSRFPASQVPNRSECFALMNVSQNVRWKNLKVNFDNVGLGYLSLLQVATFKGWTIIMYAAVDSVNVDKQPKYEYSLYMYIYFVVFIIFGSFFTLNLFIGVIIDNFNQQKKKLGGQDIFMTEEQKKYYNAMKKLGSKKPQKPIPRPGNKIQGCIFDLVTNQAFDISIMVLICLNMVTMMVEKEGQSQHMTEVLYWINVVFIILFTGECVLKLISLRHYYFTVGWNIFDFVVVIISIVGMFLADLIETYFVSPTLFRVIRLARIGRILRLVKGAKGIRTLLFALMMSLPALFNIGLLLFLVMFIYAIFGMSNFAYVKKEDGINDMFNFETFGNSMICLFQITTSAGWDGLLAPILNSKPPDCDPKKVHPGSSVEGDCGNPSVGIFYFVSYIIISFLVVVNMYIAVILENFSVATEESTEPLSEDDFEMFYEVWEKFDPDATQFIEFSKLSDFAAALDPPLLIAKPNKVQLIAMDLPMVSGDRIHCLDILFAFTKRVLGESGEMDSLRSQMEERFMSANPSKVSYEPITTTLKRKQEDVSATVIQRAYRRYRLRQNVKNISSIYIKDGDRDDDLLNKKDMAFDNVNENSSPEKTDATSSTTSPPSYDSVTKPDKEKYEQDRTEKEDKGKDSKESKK
Chain of hNav1.4 (P35499 whole entry): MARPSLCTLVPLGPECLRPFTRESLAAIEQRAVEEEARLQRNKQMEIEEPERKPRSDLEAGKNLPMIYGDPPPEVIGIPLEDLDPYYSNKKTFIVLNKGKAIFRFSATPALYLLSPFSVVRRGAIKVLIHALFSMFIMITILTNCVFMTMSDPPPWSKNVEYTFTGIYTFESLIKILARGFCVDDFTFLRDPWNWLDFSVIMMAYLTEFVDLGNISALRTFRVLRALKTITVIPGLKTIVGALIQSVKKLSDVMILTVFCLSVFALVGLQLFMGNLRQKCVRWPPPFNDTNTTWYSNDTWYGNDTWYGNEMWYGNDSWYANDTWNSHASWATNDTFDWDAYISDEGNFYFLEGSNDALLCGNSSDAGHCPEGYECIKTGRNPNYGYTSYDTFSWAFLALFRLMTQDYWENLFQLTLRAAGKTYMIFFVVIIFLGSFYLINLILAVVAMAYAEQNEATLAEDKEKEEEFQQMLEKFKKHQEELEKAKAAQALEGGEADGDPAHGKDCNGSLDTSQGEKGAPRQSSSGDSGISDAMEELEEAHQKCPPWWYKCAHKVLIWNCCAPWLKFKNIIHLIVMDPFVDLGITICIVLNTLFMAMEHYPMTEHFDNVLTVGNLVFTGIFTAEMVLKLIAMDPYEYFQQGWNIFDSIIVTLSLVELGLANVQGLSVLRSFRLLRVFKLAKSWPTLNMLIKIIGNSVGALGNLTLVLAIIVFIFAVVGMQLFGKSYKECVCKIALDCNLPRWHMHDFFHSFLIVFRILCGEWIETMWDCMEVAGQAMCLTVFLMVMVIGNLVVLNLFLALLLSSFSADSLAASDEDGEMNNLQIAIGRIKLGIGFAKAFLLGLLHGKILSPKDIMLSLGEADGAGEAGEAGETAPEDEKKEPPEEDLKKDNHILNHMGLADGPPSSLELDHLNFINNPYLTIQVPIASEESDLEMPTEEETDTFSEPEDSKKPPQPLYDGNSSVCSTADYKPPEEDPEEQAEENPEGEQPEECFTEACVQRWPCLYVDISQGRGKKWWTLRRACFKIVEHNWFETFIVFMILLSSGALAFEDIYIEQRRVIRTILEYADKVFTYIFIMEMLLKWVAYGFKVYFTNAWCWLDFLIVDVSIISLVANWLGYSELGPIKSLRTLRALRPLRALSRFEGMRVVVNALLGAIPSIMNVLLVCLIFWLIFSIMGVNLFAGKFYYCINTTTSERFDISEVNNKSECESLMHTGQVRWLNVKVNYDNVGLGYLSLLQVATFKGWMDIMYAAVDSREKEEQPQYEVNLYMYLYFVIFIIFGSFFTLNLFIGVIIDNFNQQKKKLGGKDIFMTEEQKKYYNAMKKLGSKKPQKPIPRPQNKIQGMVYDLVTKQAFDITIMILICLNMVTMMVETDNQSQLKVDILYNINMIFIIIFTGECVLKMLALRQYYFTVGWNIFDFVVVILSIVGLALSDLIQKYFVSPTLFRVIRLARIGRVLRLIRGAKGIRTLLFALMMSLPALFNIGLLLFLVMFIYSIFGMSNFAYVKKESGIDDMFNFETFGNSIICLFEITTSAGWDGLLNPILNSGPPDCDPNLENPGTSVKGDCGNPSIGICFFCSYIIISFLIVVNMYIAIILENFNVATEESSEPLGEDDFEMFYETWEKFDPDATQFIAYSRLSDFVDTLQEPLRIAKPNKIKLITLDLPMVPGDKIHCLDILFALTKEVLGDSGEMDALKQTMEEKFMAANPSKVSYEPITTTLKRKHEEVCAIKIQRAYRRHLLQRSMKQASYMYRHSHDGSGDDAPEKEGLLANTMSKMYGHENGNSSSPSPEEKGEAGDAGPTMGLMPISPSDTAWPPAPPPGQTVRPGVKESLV

For orientation: pIC50 means the IC50 on a negative log10 scale, so that one unit is a factor of ten. On to `C#CC[C@H](N)C(=O)NCCCC[C@@H]1NC(=O)[C@H](CCCNC(=N)N)NC(=O)[C@H](CCCCN)NC(=O)[C@H](CO)NC(=O)[C@H](CC(=O)O)NC(=O)[C@@H]2CSSC[C@@H]3NC(=O)[C@H](CCCNC(=N)N)NC(=O)[C@H](CC(C)C)NC(=O)CNC(=O)[C@H](CCC(=O)O)NC(=O)[C@H](CSSC[C@H](NC(=O)[C@H](Cc4ccc(O)cc4)NC(=O)[C@@H](N)CC#N)C(=O)N[C@@H](CCC(N)=O)C(=O)N[C@@H](CCCCN)C(=O)N[C@@H](Cc4c[nH]c5ccccc45)C(=O)N[C@@H](CC(C)C)C(=O)N[C@@H](Cc4c[nH]c5ccccc45)C(=O)N[C@@H]([C@@H](C)O)C(=O)N2)NC(=O)[C@H](CSSC[C@@H](C(=O)N[C@@H](CCCNC(=N)N)C(=O)N[C@@H](CCCCN)C(=O)N[C@@H](CCC(=O)O)C(=O)N[C@H](C(N)=O)[C@@H](C)CC)NC(=O)[C@H](Cc2c[nH]c4ccccc24)NC(=O)[C@H](CC(C)C)NC(=O)[C@H](CCCCN)NC3=O)NC1=O` [compound 449], for which the figures for the pIC50 at hNav1.7 (tonic block), on hNav1.4 (tonic block) and on hNav1.5 (tonic block) were 8.83, 6.78 and 5.81, respectively.

Regarding `CC[C@H](C)[C@H](NC(=O)[C@@H](NC(=O)[C@H](CCCCN)NC(=O)[C@H](CCCNC(=N)N)NC(=O)[C@@H]1CSSC[C@@H]2NC(=O)[C@H](C)NC(=O)[C@H](CCCNC(=N)N)NC(=O)[C@H](CCCCN)NC(=O)[C@H](CO)NC(=O)[C@H](CC(=O)O)NC(=O)[C@@H]3CSSC[C@H](NC(=O)[C@H](CCCNC(=N)N)NC(=O)[C@H](CC(C)C)NC(=O)CNC(=O)[C@H](CCC(=O)O)NC(=O)[C@H](CSSC[C@H](NC(=O)[C@@H](N)CCC(=O)O)C(=O)N[C@@H](CCC(N)=O)C(=O)N[C@@H](CCCCN)C(=O)N[C@@H](Cc4c[nH]c5ccccc45)C(=O)N[C@@H](CCSC)C(=O)N[C@@H](Cc4c[nH]c5ccccc45)C(=O)N[C@@H]([C@@H](C)O)C(=O)N3)NC2=O)C(=O)N[C@@H](CCCCN)C(=O)N[C@@H](CC(C)C)C(=O)N[C@@H](Cc2c[nH]c3ccccc23)C(=O)N1)[C@@H](C)CC)C(N)=O` [compound 49], the values for the pIC50 on hNav1.7 (setting [1]), at hNav1.4 (setting [1]) and at hNav1.5 (setting [1]) were 9.52, 8.10 and 5.19, respectively. The Nav1.4/Nav1.7 at hNav1.4 (ratio of PX IC50 values) was determined as 27.

In the case of `C#CC[C@@H]1NC(=O)[C@H](CC(=O)O)NC(=O)[C@@H]2CSSC[C@@H]3NC(=O)[C@H](CCC(=O)O)NC(=O)[C@H](CC(C)C)NC(=O)CNC(=O)[C@H](CCC(=O)O)NC(=O)[C@H](CSSC[C@H](NC(=O)[C@@H](N)Cc4ccc(O)cc4)C(=O)N[C@@H](CCC(N)=O)C(=O)N[C@@H](CCCCN)C(=O)N[C@@H](Cc4c[nH]c5ccccc45)C(=O)N[C@@H](CCCC)C(=O)N[C@@H](Cc4c[nH]c5ccccc45)C(=O)N[C@@H]([C@@H](C)O)C(=O)N2)NC(=O)[C@H](CSSC[C@@H](C(=O)N[C@@H](CCCNC(=N)N)C(=O)N[C@@H](CCCCN)C(=O)N[C@H](C(=O)N[C@H](C(N)=O)[C@@H](C)CC)[C@@H](C)CC)NC(=O)[C@H](Cc2c[nH]c4ccccc24)NC(=O)[C@H](CC(C)C)NC(=O)[C@H](CCCCN)NC3=O)NC(=O)[C@H](C)NC(=O)[C@H](CCCNC(=N)N)NC(=O)[C@H](CCCCN)NC1=O` [compound 344], the results for the negative logarithm of the IC50 (pIC50) at hNav1.7 (tonic block), on hNav1.4 (tonic block) and on hNav1.5 (tonic block) were 7.74, 5.37 and 5.45, respectively. Also, the Nav1.4/Nav1.7 on hNav1.4 (ratio of PX tonic IC50 values) stood at 230.

Regarding `C#CC[C@@H]1NC(=O)[C@@H]2CSSC[C@H](NC(=O)[C@@H](N)Cc3ccc(O)cc3)C(=O)N[C@@H](CCC(N)=O)C(=O)N[C@@H](CCCCN)C(=O)N[C@@H](Cc3c[nH]c4ccccc34)C(=O)N[C@@H](CCCC)C(=O)N[C@@H](Cc3c[nH]c4ccccc34)C(=O)N[C@@H]([C@@H](C)O)C(=O)N[C@H]3CSSC[C@H](NC(=O)[C@H](CCC(=O)O)NC(=O)[C@H](CC(C)C)NC(=O)CNC1=O)C(=O)N[C@@H](CCCCN)C(=O)N[C@@H](CC(C)C)C(=O)N[C@@H](Cc1c[nH]c4ccccc14)C(=O)N[C@H](C(=O)N[C@@H](CCCNC(=N)N)C(=O)N[C@@H](CCCCN)C(=O)N[C@@H](Cc1ccc(O)cc1)C(=O)N[C@H](C(N)=O)[C@@H](C)CC)CSSC[C@H](NC(=O)[C@H](C)NC(=O)[C@H](CCCNC(=N)N)NC(=O)[C@H](CCCCN)NC(=O)[C@H](CO)NC(=O)[C@H](CC(=O)O)NC3=O)C(=O)N2` [compound 317], the figures for the negative logarithm of the IC50 (pIC50) at hNav1.7 (tonic block), on hNav1.4 (tonic block) and at hNav1.5 (tonic block) were 8.42, 6.21 and 5.45, respectively.

As for `CCCC[C@@H]1NC(=O)[C@H](Cc2c[nH]c3ccccc23)NC(=O)[C@H](CCCCN)NC(=O)[C@H](CCC(N)=O)NC(=O)[C@@H](NC(=O)[C@H](Cc2ccc(O)cc2)NC(=O)[C@@H](N)CCC(C)C)CSSC[C@@H]2NC(=O)[C@@H]3CSSC[C@@H](C(=O)N[C@@H](CCCNC(=N)N)C(=O)N[C@@H](CCCCN)C(=O)N[C@H](C(=O)N[C@H](C(N)=O)[C@@H](C)CC)[C@@H](C)CC)NC(=O)[C@H](Cc4c[nH]c5ccccc45)NC(=O)[C@H](CC(C)C)NC(=O)[C@H](CCCCN)NC(=O)[C@H](CSSC[C@H](NC(=O)[C@H]([C@@H](C)O)NC(=O)[C@H](Cc4c[nH]c5ccccc45)NC1=O)C(=O)N[C@@H](CC(=O)O)C(=O)N[C@@H](CO)C(=O)N[C@@H](CCCCN)C(=O)N[C@@H](CCCNC(=N)N)C(=O)N[C@@H](C)C(=O)N3)NC(=O)[C@H](CCCNC(=N)N)NC(=O)[C@H](CC(C)C)NC(=O)CNC(=O)[C@H](CCC(=O)O)NC2=O` [compound 377], the pIC50 is 9.17 on hNav1.7 (setting [1]), 8.07 on hNav1.4 (setting [1]) and 6.38 on hNav1.5 (setting [1]). Besides, the Nav1.4/Nav1.7 at hNav1.4 (ratio of PX IC50 values) was found to be 13.

In the case of `C#CC[C@@H]1NC(=O)[C@@H]2CSSC[C@H](NC(=O)[C@@H](N)Cc3ccc(O)cc3)C(=O)N[C@@H](CCC(N)=O)C(=O)N[C@@H](CCCCN)C(=O)N[C@@H](Cc3c[nH]c4ccccc34)C(=O)N[C@@H](CCCC)C(=O)N[C@@H](Cc3c[nH]c4ccccc34)C(=O)N[C@@H]([C@@H](C)O)C(=O)N[C@H]3CSSC[C@H](NC(=O)[C@H](CCCNC(=N)N)NC(=O)[C@H](CC(C)C)NC(=O)CNC1=O)C(=O)N[C@@H](CCCCN)C(=O)N[C@@H](CC(C)C)C(=O)N[C@@H](Cc1c[nH]c4ccccc14)C(=O)N[C@H](C(=O)N[C@@H](CCCNC(=N)N)C(=O)N[C@@H](CCCCN)C(=O)N[C@@H](CCC(=O)O)C(=O)N[C@H](C(N)=O)[C@@H](C)CC)CSSC[C@H](NC(=O)[C@H](C)NC(=O)[C@H](CCCNC(=N)N)NC(=O)[C@H](CCCCN)NC(=O)[C@H](CO)NC(=O)[C@H](CC(=O)O)NC3=O)C(=O)N2` [compound 332], the pIC50 is 8.44 on hNav1.7 (tonic block), 6.90 at hNav1.4 (tonic block) and 5.51 on hNav1.5 (tonic block). Further, on hNav1.4 (ratio of PX tonic IC50 values), the Nav1.4/Nav1.7 is given as 34.

Take `CCCC[C@@H]1NC(=O)[C@H](Cc2c[nH]c3ccccc23)NC(=O)[C@H](CCCCN)NC(=O)[C@H](CCC(N)=O)NC(=O)[C@@H](NC(=O)[C@@H](N)CCCCN=[N+]=[N-])CSSC[C@@H]2NC(=O)[C@@H]3CSSC[C@@H](C(=O)N[C@@H](CCCNC(=N)N)C(=O)N[C@@H](CCCCN)C(=O)N[C@H](C(=O)N[C@@H](Cc4c[nH]c5ccccc45)C(N)=O)[C@@H](C)CC)NC(=O)[C@H](Cc4c[nH]c5ccccc45)NC(=O)[C@H](CC(C)C)NC(=O)[C@H](CCCCN)NC(=O)[C@H](CSSC[C@H](NC(=O)[C@H]([C@@H](C)O)NC(=O)[C@H](Cc4c[nH]c5ccccc45)NC1=O)C(=O)N[C@@H](CC(=O)O)C(=O)N[C@@H](CO)C(=O)N[C@@H](CCCCN)C(=O)N[C@@H](CCCNC(=N)N)C(=O)N[C@@H](C)C(=O)N3)NC(=O)[C@H](CCC(=O)O)NC(=O)[C@H](CC(C)C)NC(=O)CNC(=O)[C@H](CCC(=O)O)NC2=O` [compound 304]: the pIC50 was 8.41 at hNav1.7 (tonic block), 5.76 on hNav1.4 (tonic block) and 5.59 on hNav1.5 (tonic block).

Take `C#CC[C@H](N)C(=O)NCCOCCOCCOCCOCCC(=O)NCCCC[C@@H]1NC(=O)[C@@H]2CSSC[C@H](NC(=O)[C@H](Cc3ccc(O)cc3)NC(=O)[C@@H](N)CC#N)C(=O)N[C@@H](CCC(N)=O)C(=O)N[C@@H](CCCCN)C(=O)N[C@@H](Cc3c[nH]c4ccccc34)C(=O)N[C@@H](CCCC)C(=O)N[C@@H](Cc3c[nH]c4ccccc34)C(=O)N[C@@H]([C@@H](C)O)C(=O)N[C@H]3CSSC[C@H](NC(=O)[C@H](CCCNC(=N)N)NC(=O)[C@H](CC(C)C)NC(=O)CNC1=O)C(=O)N[C@@H](CCCCN)C(=O)N[C@@H](CC(C)C)C(=O)N[C@@H](Cc1c[nH]c4ccccc14)C(=O)N[C@H](C(=O)N[C@@H](CCCNC(=N)N)C(=O)N[C@@H](CCCCN)C(=O)N[C@H](C(=O)N[C@H](C(N)=O)[C@@H](C)CC)[C@@H](C)CC)CSSC[C@H](NC(=O)[C@H](C)NC(=O)[C@H](CCCNC(=N)N)NC(=O)[C@H](CCCCN)NC(=O)[C@H](CO)NC(=O)[C@H](CC(=O)O)NC3=O)C(=O)N2` [compound 385]: the negative-log IC50 (pIC50) at hNav1.7 (tonic block) was 8.44. Moreover, on hNav1.4 (ratio of PX tonic IC50 values), the Nav1.4/Nav1.7 is given as 0. Further, the Nav1.5/Nav1.7 on hNav1.5 (ratio of PX tonic IC50 values) is reported as 0.

With `CCCC[C@@H]1NC(=O)[C@H](Cc2c[nH]c3ccccc23)NC(=O)[C@H](CCCCN)NC(=O)[C@H](CCC(N)=O)NC(=O)[C@@H](NC(=O)[C@H](Cc2ccc(O)cc2)NC(=O)[C@@H](N)Cc2cn(CCOCCOCCOCCOCCOCCOCCOCCOCCOCCOCCOCCNC(=O)CSCc3ccccc3)nn2)CSSC[C@@H]2NC(=O)[C@@H]3CSSC[C@@H](C(=O)N[C@@H](CCCNC(=N)N)C(=O)N[C@@H](CCCCN)C(=O)N[C@H](C(=O)N[C@H](C(N)=O)[C@@H](C)CC)[C@@H](C)CC)NC(=O)[C@H](Cc4c[nH]c5ccccc45)NC(=O)[C@H](CC(C)C)NC(=O)[C@H](CCCCN)NC(=O)[C@H](CSSC[C@H](NC(=O)[C@H]([C@@H](C)O)NC(=O)[C@H](Cc4c[nH]c5ccccc45)NC1=O)C(=O)N[C@@H](CC(=O)O)C(=O)N[C@@H](CO)C(=O)N[C@@H](CCCCN)C(=O)N[C@@H](CCCNC(=N)N)C(=O)N[C@@H](C)C(=O)N3)NC(=O)[C@H](CCCNC(=N)N)NC(=O)[C@H](CC(C)C)NC(=O)CNC(=O)[C@H](CCC(=O)O)NC2=O` [compound 427], the negative-log IC50 (pIC50) on hNav1.7 (setting [1]) was 8.85; on hNav1.4 (setting [1]), 7.89; on hNav1.5 (setting [1]) it was 5.70. For the same molecule, on hNav1.4 (ratio of PX IC50 values), the Nav1.4/Nav1.7 turned out to be 9.
